Where a name gives a salt, the structure may show the parent alone. Read-outs that look alike come from different tables or passages of the source.
Columns and labels:
[1] = system: anaesthesized cats, fibrillation threshold of the heart; test: Determination of the fibrillation threshold in anaesthetized cats; assay type: in vivo; details: cat
Excerpt: The chests of the cats were opened under chloralose-urethane anaesthesia, a bipolar stimulating electrode was fixed onto the heart, and the heart was stimulated electrically with a frequency of 20 Hz, under continuously increasing current strength, until a fibrillo-flattern could be observed. This current strength was considered as the fibrillation threshold of the animal.

[2] = system: mice treated with aconitin; test: animal or person; assay type: in vivo; details: Mus musculus, read-out: Delay in the appearance time of arrhythmia
Description: Arrhytmia was induced in male mice, weighing 20 to 25 g, by treating them continuously, at a rate of 0.2 ml/min with an infusion containing 5 μg/kg of aconitin. The test compound was administered to the animals either intraperitoneally (by injecting it into the abdominal cavity) 15 minutes before the start of the infusion, or orally 60 minutes before the onset of the infusion. The time of the appearance of arrhythmia was recorded, and the percentage of delay was calculated in relation to the data obtained in the controls, pretreated with 0.9 percent sodium chloride solution only [B. Vargaftig and J. L. Coignet: European J. of Pharmacol. 6, 49 to 55 (1969); N. K. Dadkar and B. K. Bhattachariya: Arch. Int. Pharmacodyn. 212, 297 to 301 (1974); D. U. Nwagwu, T. L. Holcslaw and S. J. Stohs: Arch. Int. Pharmacodyn. 229, 219 to 226 (1977)].

[3] = in vivo; details: mouse
[4] = system: right ventricle of isolated rabbit heart; test: Electrophysiological tests in the isolated rabbit heart, right ventricle; details: 2.0 mg/l, n = 4
Description: (§1) Hearts of rabbits of both sexes, weighing 1 to 2 kg, were removed, the right and left auricles and a segment of the right ventricle were prepared and placed into a vessel filled with nutrient solution. Bipolar platinum electrodes (a stimulating electrode and a lead electrode) were placed on the organ strips, and the electric stimulus threshold and the speed of impulse conduction were measured. The effective refractory period was determined on the basis of the maximal driving frequency.

[5] = system: left auricle of isolated rabbit heart; test: Electrophysiological tests in the isolated rabbit heart, left auricle; details: 2.0 mg/l, n = 4
Description: as §1

[6] = 2.0 mg/kg i.v., 2 min following treatment
[7] = 2.0 mg/kg i.v., 10 min following treatment
[8] = 2.0 mg/kg i.v., 20 min following treatment
[9] = 4.0 mg/kg i.v., 2 min following treatment
[10] = 4.0 mg/kg i.v., 10 min following treatment
[11] = 4.0 mg/kg i.v., 20 min following treatment
[12] = 20 mg/kg i.d., 10 minutes following treatment
[13] = 20 mg/kg i.d., 20 minutes following treatment
[14] = 20 mg/kg i.d., 30 minutes following treatment
[15] = 20 mg/kg i.d., 40 minutes following treatment
[16] = 20 mg/kg i.d., 50 minutes following treatment
[17] = 20 mg/kg i.d., 60 minutes following treatment
[18] = 20 mg/kg i.d., 70 minutes following treatment
[19] = 20 mg/kg i.d., 80 minutes following treatment
[20] = 20 mg/kg i.d., 90 minutes following treatment
[21] = 20 mg/kg i.d., 100 minutes following treatment

## C=C[C@H]1C[N@@]2CC[C@H]1C[C@@H]2[C@@H](O)c1ccnc2ccc(OC)cc12 [Quinidine, quinidine, reference compound]
[1]; 10 mg/kg i.d., 10 minutes following treatment
  Percentual change in the fibrillation threshold: +0.4%
[1]; 10 mg/kg i.d., 20 minutes following treatment
  Percentual change in the fibrillation threshold: +26.7%
[1]; 10 mg/kg i.d., 30 minutes following treatment
  Percentual change in the fibrillation threshold: +58.5%
[1]; 10 mg/kg i.d., 40 minutes following treatment
  Percentual change in the fibrillation threshold: +48.5%
[1]; 10 mg/kg i.d., 50 minutes following treatment
  Percentual change in the fibrillation threshold: +32.1%
[1]; 10 mg/kg i.d., 70 minutes following treatment
  Percentual change in the fibrillation threshold: +9.5%
[1]; 10 mg/kg i.d., 80 minutes following treatment
  Percentual change in the fibrillation threshold: +8.8%
[1]; 10 mg/kg i.d., 90 minutes following treatment
  Percentual change in the fibrillation threshold: +3.8%
[1]; 10 mg/kg i.d., 100 minutes following treatment
  Percentual change in the fibrillation threshold: 0.0%

## CN(C)C(=N)NNc1ccccc1 [Example 18]
[2]; po
  change in vivo at 100 mg/kg: 74%

## Cc1cccc(C)c1NNC(=N)N(C)C [Example 5]
[1]; 0.5 mg/kg i.v., 2 min following treatment
  Percentual change in the fibrillation threshold: +18.75%
[1]; 0.5 mg/kg i.v., 10 min following treatment
  Percentual change in the fibrillation threshold: +40.75%
[1]; 0.5 mg/kg i.v., 20 min following treatment
  Percentual change in the fibrillation threshold: +37.6%
[1]; 1.0 mg/kg i.v., 2 min following treatment
  Percentual change in the fibrillation threshold: +35.2%
[1]; 1.0 mg/kg i.v., 10 min following treatment
  Percentual change in the fibrillation threshold: +55.2%
[1]; 1.0 mg/kg i.v., 20 min following treatment
  Percentual change in the fibrillation threshold: +48.4%
[1]; [6]
  Percentual change in the fibrillation threshold: +101.1%
[1]; [7]
  Percentual change in the fibrillation threshold: +93.0%
[1]; [8]
  Percentual change in the fibrillation threshold: +94.15%
[1]; [9]
  Percentual change in the fibrillation threshold: +153.3%
[1]; [10]
  Percentual change in the fibrillation threshold: +125.65%
[1]; [11]
  Percentual change in the fibrillation threshold: +124.0%
[1]; 8.0 mg/kg i.v., 2 min following treatment
  Percentual change in the fibrillation threshold: +392.8%
[1]; 8.0 mg/kg i.v., 10 min following treatment
  Percentual change in the fibrillation threshold: +354.5%
[1]; 8.0 mg/kg i.v., 20 min following treatment
  Percentual change in the fibrillation threshold: +310.25%
[1]; [12]
  Percentual change in the fibrillation threshold: +22.2%
[1]; [13]
  Percentual change in the fibrillation threshold: +29.0%
[1]; [14]
  Percentual change in the fibrillation threshold: +94.0%
[1]; [15]
  Percentual change in the fibrillation threshold: +103.7%
[1]; [16]
  Percentual change in the fibrillation threshold: +100.4%
[1]; [17]
  Percentual change in the fibrillation threshold: +105.8%
[1]; [18]
  Percentual change in the fibrillation threshold: +100.3%
[1]; [19]
  Percentual change in the fibrillation threshold: +121.5%
[1]; [20]
  Percentual change in the fibrillation threshold: +132.8%
[1]; [21]
  Percentual change in the fibrillation threshold: +132.3%
[3]; ip
  LD50: 130 mg/kg
[3]; po
  LD50: 400 mg/kg
[2]; ip
  change in vivo at 25 mg/kg: 113%
  change in vivo at 50 mg/kg: 155%
[2]; po
  change in vivo at 100 mg/kg: 111%

## CC1CCCCN1C(=N)NNc1ccccc1Cl (stereo not drawn) [Example 8]
[2]; ip
  change in vivo at 5 mg/kg: 32%
  change in vivo at 10 mg/kg: 110%

## CN(C)C(=N)NNc1cccc(Cl)c1 [Example 9]
[2]; ip
  change in vivo at 50 mg/kg: 171%

## Cc1ccccc1NNC(=N)N1CCCC1 [Example 7]
[2]; ip
  change in vivo at 25 mg/kg: 50%
  change in vivo at 50 mg/kg: 128%
[2]; po
  change in vivo at 50 mg/kg: 54%
  change in vivo at 100 mg/kg: 137%

## CN(C)C(=N)NNc1ccccc1Cl [Example 6]
[2]; ip
  change in vivo at 50 mg/kg: 114%
[2]; po
  change in vivo at 100 mg/kg: 70%

## CCN(CC)C(=N)NNc1ccccc1Cl [Example 3, 1-(2-Chlorophenyl)-4,4-diethyl-aminoguanidine hydrochloride]
[2]; ip
  change in vivo at 10 mg/kg: 108%
  change in vivo at 20 mg/kg: 68%

## Cc1cccc(C)c1OCC(C)N.Cl (stereo not drawn) [Mexiletin, 1-(2,6-Dimethylphenoxy)-2-aminopropane hydrochloride, reference compound]
[4]
  Change in conduction time: +11%
  Change in electric stimulus threshold: +6%
  Change in max. driving frequency: -28%
[5]
  Change in conduction time: +24%
  Change in electric stimulus threshold: 36%
  Change in max. driving frequency: -32%
[1]; 10.0 mg/kg i.v., 10 min following treatment
  Percentual change in the fibrillation threshold: +161.2%
[1]; 10.0 mg/kg i.v., 20 min following treatment
  Percentual change in the fibrillation threshold: +92.0%
[2]; ip
  change in vivo at 5 mg/kg: 3.5%
  change in vivo at 10 mg/kg: 7.7%
  change in vivo at 25 mg/kg: 33%
  change in vivo at 50 mg/kg: 83%
  change in vivo at 75 mg/kg: 162%
[2]; po
  change in vivo at 100 mg/kg: 93%

## Cc1ccccc1NNC(=N)N1CCOCC1 [Example 22]
[2]; ip
  change in vivo at 50 mg/kg: 100%

## CN(C)C(=N)NNc1c(Cl)cccc1Cl [Example 2, 1-(2,6-Dichlorophenyl)-4,4-dimethyl-aminoguanidine]
[3]; ip
  LD50: 73 mg/kg
[3]; po
  LD50: 220 mg/kg
[2]; ip
  change in vivo at 25 mg/kg: 79%
  change in vivo at 50 mg/kg: 156%
[2]; po
  change in vivo at 25 mg/kg: 39%
  change in vivo at 50 mg/kg: 71%
  change in vivo at 100 mg/kg: 150%

## CCc1cccc(C)c1NNC(=N)N(C)C [Example 21]
[2]; ip
  change in vivo at 25 mg/kg: 110%
  change in vivo at 50 mg/kg: 86%

## Cc1cccc(C)c1NNC(=N)N1CCCC1 [Example 11]
[1]; [6]
  Percentual change in the fibrillation threshold: +130.6%
[1]; [7]
  Percentual change in the fibrillation threshold: +149.0%
[1]; [8]
  Percentual change in the fibrillation threshold: +163.3%
[1]; [9]
  Percentual change in the fibrillation threshold: +176.0%
[1]; [10]
  Percentual change in the fibrillation threshold: +328.0%
[1]; [11]
  Percentual change in the fibrillation threshold: +316.0%
[1]; [12]
  Percentual change in the fibrillation threshold: +5.8%
[1]; [13]
  Percentual change in the fibrillation threshold: +22.0%
[1]; [14]
  Percentual change in the fibrillation threshold: +43.8%
[1]; [15]
  Percentual change in the fibrillation threshold: +79.6%
[1]; [16]
  Percentual change in the fibrillation threshold: +115%
[1]; [17]
  Percentual change in the fibrillation threshold: +118%
[1]; [18]
  Percentual change in the fibrillation threshold: +141%
[1]; [19]
  Percentual change in the fibrillation threshold: +198%
[1]; [20]
  Percentual change in the fibrillation threshold: +209.5%
[1]; [21]
  Percentual change in the fibrillation threshold: +272.5%

## CCN(CC)C(=N)NNc1ccccc1C [Example 4, 1-(2-Methyl-phenyl)-4,4-diethyl-aminoguanidine hydrochloride]
[2]; ip
  change in vivo at 5 mg/kg: 28%
  change in vivo at 10 mg/kg: 77%

— patent publication US4731383A, “Aminoguanidine compounds, their compositions and pharmaceutical uses” (Biogal Gyogyszergyar, priority 1983, dated 1988)
